Source: paper PMC11049645, “Mechanistic Study of Novel Dipeptidyl Peptidase IV Inhibitory Peptides from Goat’s Milk Based on Peptidomics and In Silico Analysis” (Foods, 2024)
Where two headings read alike, the source gives them in different places. Peptide text beside a SMILES is read from it.

Experiments:
DPP-IV [1] = details: cited from earlier work
DPP-IV [2] = target: T1, DPP-IV (Homo sapiens, UniProt P27487); assay: DPP-IV inhibitory assay (in vitro chemical system, Gly-Pro-pNA); assay type: biochemical; details: Gly-Pro-pNA substrate, pH 8, 37 °C, 60 min, mean ± SD
T1 construct: purchased Sigma-Aldrich
T1 sequence (P27487 whole entry): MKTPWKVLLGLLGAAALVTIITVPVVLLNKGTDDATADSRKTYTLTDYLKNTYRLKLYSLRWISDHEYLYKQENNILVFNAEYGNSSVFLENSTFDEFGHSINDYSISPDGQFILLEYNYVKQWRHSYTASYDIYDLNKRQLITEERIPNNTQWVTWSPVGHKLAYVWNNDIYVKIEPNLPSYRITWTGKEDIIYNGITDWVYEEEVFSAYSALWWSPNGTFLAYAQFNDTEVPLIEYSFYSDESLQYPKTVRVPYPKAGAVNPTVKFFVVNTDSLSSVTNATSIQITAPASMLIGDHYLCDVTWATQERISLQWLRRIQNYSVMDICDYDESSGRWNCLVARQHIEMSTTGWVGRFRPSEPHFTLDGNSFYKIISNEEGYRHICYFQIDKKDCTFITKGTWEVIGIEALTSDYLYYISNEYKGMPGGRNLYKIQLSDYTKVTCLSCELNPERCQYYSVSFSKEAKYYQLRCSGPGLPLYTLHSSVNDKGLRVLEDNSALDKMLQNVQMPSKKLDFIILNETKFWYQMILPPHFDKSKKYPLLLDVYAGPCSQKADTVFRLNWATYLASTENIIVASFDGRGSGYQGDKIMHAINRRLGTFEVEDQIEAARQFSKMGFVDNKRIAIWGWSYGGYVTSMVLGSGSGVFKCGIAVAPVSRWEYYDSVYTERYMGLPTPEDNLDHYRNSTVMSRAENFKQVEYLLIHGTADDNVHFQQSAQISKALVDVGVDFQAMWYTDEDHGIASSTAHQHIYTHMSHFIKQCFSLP
Experimental: The DPP-IV inhibitory activity of peptides was performed as previously reported with slight modifications. Briefly, peptides were diluted using 100 mM Tris-HCL buffer (pH = 8). Then, 25 μL diluted peptides were mixed with 25 μL of 1.6 mM Gly-Pro-pNA in a 96-well microplate and incubated at 37 °C for 10 min. […] The DPP-IV-inhibition (DI) was calculated with the following equation: DI%=1−AS−ASC/ANR−ANC×100% where AS (sample) is the optical density in the presence of peptide, DPP-IV, and Gly-Pro-pNA; ASC (sample control) is the optical density when DPP-IV is replaced with Tris-HCl buffer (100 mM, pH 8.0); ANR (negative reaction) is the optical density in the presence of only DPP-IV solution and Gly-Pro-pNA; and ANC (negative control) is the optical density in the absence of DPP-IV and peptide.

Caco-2 cells = assay: Cell viability assay (MTT); assay type: cell-based; details: 0.025~1 mg/mL, 12 h
Experimental: (§1) The Caco-2 cells (Cell Bank of Shanghai Academy of Biological Science, Shanghai, China) were incubated at 37 °C in a 5% CO2 environment in DMEM supplemented with 10% FBS and 1% penicillin–streptomycin liquid. Unless otherwise stated below, the cells were cultivated at a density of 5 × 10^4 cells/mL in the culture dishes (Corning Inc., Corning, NY, USA). The cell culture medium was changed every two days, and the cells from passage numbers of 15–25 were used in this study.
The cell viability was determined following the method described by You et al. with slight modification. Briefly, Caco-2 cells were seeded in 96-well microplates with a density of 1 × 10^4 cells/well and incubated at 37 °C with 5% CO2 for 24 h. […] After 12 h of intervention, 10 μL of MTT (0.05 mg) was added and incubated for another 4 h. Finally, the DMEM medium was replaced with 100 μL of DMSO and the absorbance of the solubilized crystals was detected at 490 nm (Molecular Devices SpectraMax M5, San Jose, CA, USA). The cell viability was calculated by the following equation:Cell viability (%) = (ODtest − ODblank)/(ODcontrol − ODblank) × 100%

[3] = target: T2, DPP-IV activity of Caco-2 cells (Homo sapiens, UniProt P27487); assay: In situ cell-based DPP-IV inhibition (Gly-Pro-AMC); details: 1 h at 37 °C, Gly-Pro-AMC 50 µM, mean ± SD (n = 3), read-out: In situ DPP-IV inhibitory activity IC50
T2 construct: endogenous in cells; host or cells: Caco-2
T2 sequence (P27487 whole entry): as above
Experimental: as §1
Briefly, 2 × 10^4 Caco-2 cells/well cells were seeded in 96-well microplates and cultivated for 24 h. […] Subsequently, 100 µL of the fluorescent substrate Gly-Pro-AMC (50 µM) was added to each well and incubated for 5 min. IPI was used as a positive control. Then, the florescence was monitored with excitation and emission wavelengths of 380 nm and 500 nm (Molecular Devices SpectraMax M5, San Jose, CA, USA).

[4] = read-out: DPP-IV inhibition IC50
[5] = competitive DPP-IV inhibitory peptides from camel whey protein, read-out: DPP-IV inhibition IC50
[6] = in vitro, identified in the intestinal tract following cow milk ingestion, read-out: DPP-IV inhibition IC50
[7] = in vitro inhibition test, camel-milk-derived protein hydrolysates
[8] = peptides with molecular weights greater than 1000 Da, no reference given, read-out: DPP-IV inhibition IC50

Molecule: IPYWT
- IC50 (DPP-IV [1]; [4]): 18.3 µM

Molecule: CC(C)C[C@H](NC(=O)[C@@H](N)CC(C)C)C(=O)N[C@@H](CC(C)C)C(=O)N1CCC[C@H]1C(=O)O [Peptide P9, LLLP] (H-LLLP-OH; N-terminus and C-terminus assumed)
- IC50 (DPP-IV [2]): 0.214 ± 0.00064 mM
- Cell viability (Caco-2 cells): no significant decrease in cell viability
- IC50 [3]: 155 ± 8.41 µM

Molecule: IPAVF
- IC50 (DPP-IV [1]; identified from bovine β-lactoglobulin, read-out: DPP-IV inhibition IC50): 44.7 µM

Molecule: YPI
- IC50 (DPP-IV [1]; [5]): 35 µM

Molecule: LLW [Peptide P14]
- DPP-IV Inhibitory Activity (IC50, μM) (DPP-IV [2]): not detectable
- DPP-IV Inhibitory Activity (IC50, μM) (DPP-IV [2]; listed as LLW): no DPP-IV inhibitory activity

Molecule: CC(C)C[C@H](NC(=O)[C@@H]1CCCN1C(=O)[C@@H]1CCCN1C(=O)[C@@H](N)CC(C)C)C(=O)O [Peptide P3, LPPL] (H-LPPL-OH; N-terminus and C-terminus assumed)
- IC50 (DPP-IV [2]): 2.559 ± 0.0057 mM

Molecule: FVY [Peptide P6]
- DPP-IV Inhibitory Activity (IC50, μM) (DPP-IV [2]): not detectable

Molecule: CC(C)[C@H](N)C(=O)N1CCC[C@H]1C(=O)N1CCC[C@H]1C(=O)N[C@@H](Cc1ccccc1)C(=O)O [Peptide P2, VPPF] (H-VPPF-OH)
- IC50 (DPP-IV [2]): 1.57 ± 0.256 mM

Molecule: LYL [Peptide P7]
- DPP-IV Inhibitory Activity (IC50, μM) (DPP-IV [2]): not detectable

Molecule: IPM
- IC50 (DPP-IV [1]; [6]): 69.5 ± 8.7 µM

Molecule: N[C@@H](Cc1ccc(O)cc1)C(=O)N1CCC[C@H]1C(=O)N[C@@H](Cc1ccccc1)C(=O)O [Peptide P4, YPF] (H-Tyr-Pro-Phe-OH)
- Cell viability (Caco-2 cells): no significant decrease in cell viability

Molecule: MPVQA
- IC50 (DPP-IV [1]; [7]): 93.3 ± 8 µM

Molecule: FLEP
- IC50 (DPP-IV [1]; tri- and tetrapeptides containing Pro at the C-terminus, read-out: DPP-IV inhibition IC50): 65.3 ± 3.5 µM

Molecule: LPVPQ
- IC50 (DPP-IV [1]; [6]): 43.8 ± 8.8 µM

Molecule: INNQFLPYPY
- IC50 (DPP-IV [1]; [8]): 40.1 µM

Molecule: VPV
- IC50 (DPP-IV [1]; [5]): 6.6 µM

Molecule: WVL [Peptide P10]
- DPP-IV inhibitory activity (in words) (DPP-IV [1]; literature search): previously reported to have DPP-IV inhibitory activity

Molecule: CC(C)C[C@H](NC(=O)[C@H](C)NC(=O)[C@@H]1CCCN1)C(=O)N[C@@H](Cc1ccccc1)C(=O)O [Peptide P5, PALF] (H-PALF-OH; N-terminus and C-terminus assumed)
- IC50 (DPP-IV [2]): 1.75 ± 0.0299 mM

Molecule: LLAP
- DPP-IV inhibitory activity (in words) (DPP-IV [1]): high DPP-IV inhibitory activity

Molecule: PACGGFYISGRPG
- IC50 (DPP-IV [1]; [8]): 9.4 µM

Molecule: VPF
- IC50 (DPP-IV [1]; [5]): 55.1 µM

Molecule: IPYWTY
- IC50 (DPP-IV [1]; [4]): 11 µM

Molecule: LPVP
- IC50 (DPP-IV [1]; [7]): 87 ± 3.2 µM

Molecule: LWV [Peptide P12]
- DPP-IV Inhibitory Activity (IC50, μM) (DPP-IV [2]): not detectable

Molecule: LVW [Peptide P11]
- DPP-IV Inhibitory Activity (IC50, μM) (DPP-IV [2]): not detectable
